According to the NIST ThermoML archive (doi:10.1016/j.jct.2016.03.026):

Assay: xn = mol fraction of the nth substance listed
Details: 304.21 K, Fluid (supercritical or subcritical phases), Vibrating tube method, x1 = 0.97

O=C=O [carbon dioxide] + CO
Details	mass density [kg/m3]
10625 kPa	791.47
10650 kPa	791.91
10675 kPa	792.32
10700 kPa	792.79
10725 kPa	793.26
10750 kPa	793.67
10775 kPa	794.08
10800 kPa	794.49
10825 kPa	794.91
10850 kPa	795.38
10875 kPa	795.84
10900 kPa	796.21
10925 kPa	796.66
10950 kPa	797.06
10975 kPa	797.53
11000 kPa	797.93
11025 kPa	798.32
11050 kPa	798.73
11075 kPa	799.17
11100 kPa	799.63
11125 kPa	799.99
11150 kPa	800.45
11175 kPa	800.8
11200 kPa	801.23
11225 kPa	801.64
11250 kPa	802.05
11275 kPa	802.5
11300 kPa	802.86
11325 kPa	803.31
11350 kPa	803.73
11375 kPa	804.09
11400 kPa	804.56
11425 kPa	804.93
11450 kPa	805.27
11475 kPa	805.69
11500 kPa	806.12
11525 kPa	806.52
11550 kPa	806.91
11575 kPa	807.3
11600 kPa	807.66
11625 kPa	808.01
11650 kPa	808.41
11675 kPa	808.81
11700 kPa	809.25
11725 kPa	809.62
11750 kPa	810
11775 kPa	810.37
11800 kPa	810.74
11825 kPa	811.11
11850 kPa	811.47
11875 kPa	811.83
11900 kPa	812.25
11925 kPa	812.53
11950 kPa	812.98
11975 kPa	813.33
12000 kPa	813.7
12025 kPa	814.08
12050 kPa	814.43
12075 kPa	814.76
12100 kPa	815.17
12125 kPa	815.5
12150 kPa	815.82
12175 kPa	816.22
12200 kPa	816.54
12225 kPa	816.89
12250 kPa	817.23
12275 kPa	817.54
12300 kPa	817.94
12325 kPa	818.27
12350 kPa	818.61
12375 kPa	818.95
12400 kPa	819.29
12425 kPa	819.62
12450 kPa	819.95
12475 kPa	820.29
12500 kPa	820.61
12525 kPa	820.93
12550 kPa	821.24
12575 kPa	821.61
12600 kPa	821.94
12625 kPa	822.23
12650 kPa	822.53
12675 kPa	822.85
12700 kPa	823.18
12725 kPa	823.45
12750 kPa	823.79
12775 kPa	824.13
12800 kPa	824.43
12825 kPa	824.72
12850 kPa	825.02
12875 kPa	825.36
12900 kPa	825.66
12925 kPa	825.97
12950 kPa	826.28
12975 kPa	826.52
13000 kPa	826.85
13025 kPa	827.19
13050 kPa	827.45
13075 kPa	827.74
13100 kPa	828.02
13125 kPa	828.34
13150 kPa	828.59
13175 kPa	828.91
13200 kPa	829.21
13225 kPa	829.5
13250 kPa	829.81
13275 kPa	830.06
13300 kPa	830.33
13325 kPa	830.63
13350 kPa	830.91
13375 kPa	831.19
13400 kPa	831.47
13425 kPa	831.75
13450 kPa	832.03
13475 kPa	832.3
13500 kPa	832.56
13525 kPa	832.83
13550 kPa	833.09
13575 kPa	833.35
13600 kPa	833.6
13625 kPa	833.85
